Reference: patent US20170348288A1, “DOSING REGIMENS FOR BETA-3 ADRENOCEPTOR AGONISTS AND ANTI-MUSCARINIC AGENTS FOR THE TREATMENT AND PREVENTION OF LOWER URINARY TRACT SYMPTOMS AND OVERACTIVE BLADDER” (VELICEPT THERAPEUTICS, INC., priority 2016, published 2017)

Tests used:
[1] = target: T1, beta-3 adrenoceptor (Rattus norvegicus, UniProt P26255); test: Pilot cumulative concentration response curves to determine EC90 for inhibition of EFS-induced contraction in rat isolated bladder; conditions: rat isolated bladder strips, EFS 15 Hz, CCRC half-log increments; calculated values; read-out: EC90 concentration to inhibit EFS-induced contraction in rat isolated bladder
T1 construct: The bladder longitudinal smooth muscle, with the urothelium still attached were mounted in 25 ml organ baths; from tissue; host or cells: rat urinary bladder (longitudinal smooth muscle with urothelium), male CD rats
Experimental: Macroscopically normal bladders from Male CD rats (220-250 g) were used. […] Each bladder was cleaned free of surrounding connective tissue and halved longitudinally. The bladder longitudinal smooth muscle, with the urothelium still attached were mounted in 25 ml organ baths containing physiological saline solution (PSS) (composition: 119.0 mM NaCl, 4.7 mM KCl, 1.2 mM MgSO4, 24.9 mM NaHCO3, 1.2 mM KH2PO4, 2.5 mM CaCl2 and 11.1 mM glucose) supplemented with 1 μM prazosin (α1-adrenoceptor antagonist) and 30 nM ICI118551 (β2-adrenoceptor antagonist), aerated with 95% O2/5% CO2 gas mix, warmed and maintained at approximately 37° C. throughout the experiment. Changes in force production were recorded using transducers. […]
EFS parameters and viability check: In initial experiments the parameters for the EFS were assessed by performing a frequency curve to determine a frequency that would give a response that was approximately 80% of the response seen to 80 mM KCl. Optimal EFS parameters were determined to be: 30 Volts, square pulse of 0.1 ms, train of 4 seconds every 120 seconds, 15 Hz. […]
Pilot studies to determine EC90 concentrations of the test compounds were performed. […] From the data obtained in these experiments, EC90 concentrations of the test compounds were determined for use in subsequent experiments. […]

[2] = target: T1, beta-3 adrenoceptor; test: Desensitization and washout: CCRC on EFS-induced contraction of rat bladder strips after pre-incubation with the EC90 concentration and washing with PSS
Experimental: Macroscopically normal bladders from Male CD rats (220-250 g) were used. […] Each bladder was cleaned free of surrounding connective tissue and halved longitudinally. The bladder longitudinal smooth muscle, with the urothelium still attached were mounted in 25 ml organ baths containing physiological saline solution (PSS) (composition: 119.0 mM NaCl, 4.7 mM KCl, 1.2 mM MgSO4, 24.9 mM NaHCO3, 1.2 mM KH2PO4, 2.5 mM CaCl2 and 11.1 mM glucose) supplemented with 1 μM prazosin (α1-adrenoceptor antagonist) and 30 nM ICI118551 (β2-adrenoceptor antagonist), aerated with 95% O2/5% CO2 gas mix, warmed and maintained at approximately 37° C. throughout the experiment. Changes in force production were recorded using transducers. After mounting, the bladder halves were allowed to equilibrate for at least 30 min before they were set to a stable tension of approximately 1.0 g. The tissue was then allowed to equilibrate over at least a 60 min period with washes every 15 min.
EFS parameters and viability check: In initial experiments the parameters for the EFS were assessed by performing a frequency curve to determine a frequency that would give a response that was approximately 80% of the response seen to 80 mM KCl. Optimal EFS parameters were determined to be: 30 Volts, square pulse of 0.1 ms, train of 4 seconds every 120 seconds, 15 Hz. This frequency was then used to stimulate the tissue for all subsequent experiments. The viability of bladder strips was tested by stimulating the tissue with EFS for minimum of ten min.
The bladder muscle strips were incubated with the EC90 determined for each test compound in the pilot studies, for a period of 1 or 3 hr. Following compound incubation, the tissues were washed with PSS for a period of 1, 3 or 6 hr, with washes approximately every 15 min, to remove the drug. At the end of the final wash period the tissues were stimulated with EFS, and left to equilibrate for at least 30 min. -A CCRC was then performed in each tissue.

[3] = target: T2, murine adipocyte beta-3 adrenoceptor (Mus musculus, UniProt P25962); conditions: literature report, cited from earlier work
T2 construct: host or cells: murine adipocytes (no further detail)

[4] = three hr incubation with EC90, one hr of washing
[5] = three hr incubation, low and mid-concentration range

T1 sequence (P26255 whole entry): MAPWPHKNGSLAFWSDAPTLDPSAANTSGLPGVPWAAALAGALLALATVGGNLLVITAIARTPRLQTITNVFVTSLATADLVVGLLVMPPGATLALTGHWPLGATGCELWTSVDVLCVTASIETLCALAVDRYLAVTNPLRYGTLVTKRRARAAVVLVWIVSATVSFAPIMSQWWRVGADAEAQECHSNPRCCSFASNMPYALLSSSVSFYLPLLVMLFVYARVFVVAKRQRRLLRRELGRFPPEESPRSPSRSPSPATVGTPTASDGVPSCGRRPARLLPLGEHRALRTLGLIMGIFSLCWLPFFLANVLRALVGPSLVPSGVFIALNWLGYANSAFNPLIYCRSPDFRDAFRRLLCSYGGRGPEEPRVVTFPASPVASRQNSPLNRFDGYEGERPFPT
T2 sequence (P25962 whole entry): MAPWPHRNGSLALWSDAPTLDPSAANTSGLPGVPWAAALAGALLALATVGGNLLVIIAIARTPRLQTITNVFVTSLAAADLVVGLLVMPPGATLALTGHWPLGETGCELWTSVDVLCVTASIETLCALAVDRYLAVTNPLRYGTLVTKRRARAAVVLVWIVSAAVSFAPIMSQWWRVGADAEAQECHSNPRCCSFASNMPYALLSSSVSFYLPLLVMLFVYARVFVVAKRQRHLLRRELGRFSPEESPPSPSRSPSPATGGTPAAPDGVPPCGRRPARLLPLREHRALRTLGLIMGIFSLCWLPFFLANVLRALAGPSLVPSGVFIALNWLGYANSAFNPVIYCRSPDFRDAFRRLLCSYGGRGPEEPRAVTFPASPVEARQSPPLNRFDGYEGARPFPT

Structure (SMILES) | EC90 [1] [µM] | Responses to the agonist (CCRC, reduction of EFS-induced contraction) vs vehicle-incubated tissue [2, 4] | Potentiation of EFS-induced contraction from baseline [2, 5] | Functional response following prolonged exposure to the beta-3 agonist ([3]; murine adipocytes) | Effect on murine adipocyte beta-3 adrenoceptor [3] | Concentration range in which the EFS-mediated response was potentiated ([2]; following 1 or 3 hr of washout) [nM] | Responses to the agonist (CCRC, reduction of EFS-induced contraction) vs vehicle-incubated tissue ([2]; one hr incubation with EC90, one hr of washing with PSS) | Responses to the agonist (CCRC, reduction of EFS-induced contraction) vs vehicle-incubated tissue ([2]; one hr incubation with EC90, three hr of washing, higher concentrations) | Potentiation of EFS-induced contraction from baseline ([2]; one hr incubation, lower and mid-concentration range) | Responses to the agonist (CCRC, reduction of EFS-induced contraction) vs vehicle-incubated tissue ([2]; three hr incubation with EC90, three hr of washing, highest concentrations)
C[C@H](Cc1ccc2c(c1)OC(C(=O)[O-])(C(=O)[O-])O2)NC[C@H](O)c1cccc(Cl)c1.[Na+].[Na+] [CL-316,243] | 0.042 | significantly attenuated | not observed | attenuated | down-regulation | – | – | – | – | –
Nc1nc(CC(=O)Nc2ccc(CCNC[C@H](O)c3ccccc3)cc2)cs1 [mirabegron, (R)-2-(2-aminothiazol-4-yl)-N-(4-(2-((2-hydroxy-2-phenylethyl)amino)ethyl)phenyl)acetamide] | 15.3 | significantly attenuated | marked potentiation of EFS-induced contraction | – | – | 10 to 1000 | significantly attenuated | significantly attenuated | marked potentiation of EFS-induced contraction | significantly attenuated
